# Experimental data reported in patent US20100029613A1, “TREATMENT AND PREVENTION OF EPILEPSY” (University of Rochester, priority 2004, published 2010).
# Where “and” joins values, the source holds several entries; their conditions need not be identical. Equal entries are not always repeated. Where two headings read alike, the source gives them in different places.
# Assays:
# [1] = tested on: cultured rat cortical astrocytes; assay: Hypotonicity (swelling)-induced glutamate release, enzymatic fluorescence assay; assay type: cell-based
# [2] = tested on: cultured rat cortical astrocytes; assay: ATP-induced glutamate release, enzymatic fluorescence assay; assay type: cell-based; settings: for glutamate release triggered by ATP agonists: 100 μM
# [3] = tested on: astrocytic Ca^2+ signaling in hippocampal slices; assay type: cell-based, rat
# [4] = tested on: PDSs in hippocampal slices evoked by 4-AP; assay: 4-AP-evoked PDSs, field potential recording in hippocampal slices; assay type: cell-based, rat; settings: for frequency and amplitude of PDSs: bath applied to slices with 4-AP induced seizures, NPPB 100 μM, FFA 100 μM
# [5] = tested on: PDSs in hippocampal slices; assay: PDSs across all experimental seizure models (4-AP, Mg^2+-free, bicuculline, penicillin, Ca^2+-free); assay type: cell-based, rat
# [6] = tested on: glutamate-permeable channel in cultured astrocytes; assay: Whole-cell recording of ATP-induced current in cultured astrocytes; assay type: cell-based, rat; settings: for effect on ATP-induced current: NaCl outside, BAPTA 10 mM in pipette, NPPB 100 μM, FFA 100 μM, gossypol 10 μM, OxATP 300 μM 1 h
# [7] = tested on: cultured astrocytes; assay: Astrocyte cell volume, confocal x-z line scans of calcein-loaded cultures; assay type: cell-based, rat
# [8] = tested on: cultured astrocytes from Cx43 KO mice; assay type: cell-based
# [9] = tested on: glutamate-permeable channel in astrocytes in hippocampal slices; assay: Whole-cell recording of ATP-induced inward current in astrocytes in hippocampal slices; assay type: cell-based, rat; settings: for effect on ATP-induced inward current: 10 mM intracellular BAPTA, 100 μM NPPB in bath
# [10] = tested on: astrocytes in suspension; assay type: cell-based, rat
# [11] = tested on: cultured astrocytes; assay type: cell-based, rat
# [12] = tested on: astrocytes in hippocampal slices; assay type: cell-based, rat
# [13] = tested on: cultured astrocytes; assay: HPLC analysis of amino acid release from perfused astrocyte cultures; assay type: cell-based, rat
# [14] = tested on: ATP-induced Ca^2+ waves in cortical astrocytes; assay: In vivo two-photon imaging of ATP-induced astrocytic Ca^2+ waves; parameters: species or system mice
# [15] = tested on: 4-AP induced astrocytic Ca^2+ signaling in cortex; assay: In vivo two-photon imaging of 4-AP induced astrocytic Ca^2+ signaling; parameters: species or system mice
# [16] = tested on: cultured astrocytes; assay: Ca^2+ imaging in cultured astrocytes; assay type: cell-based, rat; settings: absence of co-cultured neurons
# [17] = tested on: hippocampus of adult rat; settings: in vivo
# [18] = tested on: interneurons in hippocampal slices; assay type: cell-based, rat
# [19] = 214 mOsM, same concentrations as for ATP-induced release
# [20] = NPPB 100 μM, FFA 100 μM, gossypol 10 μM
# [21] = valproate 450 mg/kg, gabapentin 200 mg/kg, phenyloin 100 mg/kg i.p., iontophoretic ATP, non-epileptic mice
# [22] = valproate 450 mg/kg, gabapentin 200 mg/kg, phenyloin 100 mg/kg i.p., 5-30 min after 4-AP
compound,measurement,setting,value
methionine sulfoximine [MSO],effect on glutamate release evoked by hypoosmotic challenge,[1],increased glutamate release
same,effect on ATP-induced glutamate release,[2],increased glutamate release
"NC1=N[C@H](O)[C@H]2[C@H]3O[C@]4(O)O[C@@H]([C@@H](O)[C@@]2(N1)[C@@H]4O)[C@]3(O)CO [TTX, tetrodotoxin]",frequency or amplitude of astrocytic Ca^2+ oscillations,[3],did not reduce
same,decrease of relative frequency of PDSs compared with 4-AP alone,[4],32±8%
same,frequency and amplitude of 4-AP induced PDSs,[4],only slightly decreased
same,frequency and amplitude of PDSs reduced by,[4],20-35%
same,frequency of PDSs reduced to,[5],70-90 % of total
COc1ccc2c(c1)c(CC(=O)O)c(C)n2C(=O)c1ccc(Cl)cc1 [Indomethacin],effect on ATP-induced glutamate release,[2],did not reduce
"O=C(O)c1ccccc1Nc1cccc(C(F)(F)F)c1 [FFA, flufenamic acid]",effect on ATP-induced current,[6],inhibited ATP-induced current
same,effect on glutamate release evoked by hypoosmotic challenge,[1]; [19],decreased
same,frequency and amplitude of PDSs,[4],markedly reduced
same,glutamate release in presence of anion channel blocker,[2]; [20],0.00±0.00 fmol per cell
O=c1ccn([C@@H]2O[C@H](COP(=O)(O)OP(=O)(O)OP(=O)(O)O)[C@@H](O)[C@H]2O)c(=O)[nH]1 [UTP],increase in vertical sectional areas (cell swelling),[7],5.75±0.57%
same,glutamate release triggered by ATP agonists,[2],roughly equivalent to that of ATP
Cc1cc2c(C(C)C)c(O)c(O)c(C=O)c2c(O)c1-c1c(C)cc2c(C(C)C)c(O)c(O)c(C=O)c2c1O [gossypol],glutamate release in presence of anion channel blocker,[2],0.07±0.07 fmol per cell
Nc1ncnc2c1ncn2[C@@H]1O[C@H](COP(=O)(O)OP(=O)(O)OP(=O)(O)O)[C@@H](O)[C@H]1O [ATP],glutamate release,[8],3.02 fmol per cell
same,glutamate release relative to astrocytes from wild-type littermates,[8],90.7%
same,ATP-induced inward current,[9],254±31 pA
same,increase in astrocytic cell volume,[10],3.5±0.6% and 3.0±0.5%
same,increase in vertical sectional areas (cell swelling),[7],5.19±0.66%
same,volume increase,[7],5.2%
same,"ATP-triggered inward current, amplitude",[6],250±33 pA
same,"ATP-triggered inward current, average amplitude",[6],177±37 pA and 138±36 pA
same,decrease in fluorescence-dilution emission,[11],9.6±1.3%
same,duration of the fluo-4 signal increase,[12],8.7 ± 1.4 s
same,increase in the fluo-4 signal over baseline,[12],131±13%
same,glutamate release,[2],2.49±0.21 fmol glutamate per cell
same,increase in glutamate release,[13],2- to 5 fold
"N[C@H](C(=O)O)[C@H](OCc1ccccc1)C(=O)O [TBOA, D,L-threo-beta-benzyloxyaspartate]",effect on glutamate release evoked by hypoosmotic challenge,[1]; [19],without effect
same,frequency and amplitude of PDSs compared with TTX alone,[4],increased the frequency and amplitude of PDSs significantly
same,effect on ATP-induced glutamate release,[2],without effect
"O=C(O)CN(CC(=O)O)c1ccccc1OCCOc1ccccc1N(CC(=O)O)CC(=O)O [BAPTA, 1,2-bis (2-aminophenoxy) Ethane-N,N,N′,N′-tetraacetic acid]",effect on ATP-induced inward current,[9],attenuated
same,effect on ATP-induced current,[6],blocked
same,effect on glutamate release evoked by hypoosmotic challenge,[1]; [19],failed to affect
CCCC(CCC)C(=O)O [valproate],ATP-evoked astrocytic Ca^2+ signaling (Ca^2+ waves) depressed by,[14]; [21],64.9%
same,4-AP-induced Ca^2+ signaling reduced by,[15]; [22],69.7%
"C[C@@](N)(C(=O)O)c1ccc(C(=O)O)cc1 [(S)-MCPG, (S)-Alpha-methyl-4-carboxy-phenylglycine]",frequency and amplitude of PDSs compared with TTX alone,[4],failed to reduce
"CCOc1ccc(Nc2ccc(/C(=C3C=C/C(=[N+](/CC)Cc4cccc(S(=O)(=O)[O-])c4)C=C/3C)c3ccc(N(CC)Cc4cccc(S(=O)(=O)[O-])c4)cc3C)cc2)cc1.[Na+] [BBG, Brilliant Blue G]",amplitude of the ATP-induced inward current,"[9]; BBG 1 μM, P=0.8",106.8±22.0%
same,ATP-induced glutamate release,[2]; BBG 1 μM,106.4±19.1 % of control
NCC1(CC(=O)O)CCCCC1 [gabapentin],ATP-evoked astrocytic Ca^2+ signaling (Ca^2+ waves) depressed by,"[14]; mouse, in vivo",53.8%
same,4-AP-induced Ca^2+ signaling reduced by,"[15]; mouse, in vivo",55.6%
"O=C(O)c1cc([N+](=O)[O-])ccc1NCCCc1ccccc1 [NPPB, 5-nitro-2-(3-phenylpropylamino) benzoic acid]",effect on ATP-induced inward current,[9],attenuated
same,effect on ATP-induced current,[6],inhibited ATP-induced current
same,effect on glutamate release evoked by hypoosmotic challenge,[1]; [19],decreased
same,frequency and amplitude of PDSs,[4],markedly reduced
same,glutamate release in presence of anion channel blocker,[2]; [20],0.22±0.14 fmol per cell
same,reduction of glutamate release,"[2]; after exposure to 10 μM ATP, NPPB 100 μM",72.6±3.9%
same,"effect on glutamate, aspartate, glutamine and taurine release evoked by ATP",[13],inhibited
Nc1ncnc2c1ncn2[C@@H]1O[C@H](COP(=O)(O)CP(=O)(O)OP(=O)(O)O)[C@@H](O)[C@H]1O [αβ-meATP],glutamate release triggered by ATP agonists,[2],without effect
"Nc1ccncc1 [4-AP, 4-aminopyridine]",Ca^2+ signaling in cultured astrocytes,[16],promptly induced Ca^2+ signaling
same,extracellular concentration of glutamate,[17],6 to 10 µM
same,"increase in release of amino acid osmolytes (glutamate, aspartate, glutamine, taurine)",[17],3-8 fold
same,astrocytic Ca^2+ signaling (Ca^2+ oscillations),[3],potently initiated astrocytic Ca^2+ signaling
"Nc1ncnc2c1ncn2[C@@H](C=O)O[C@@H](C=O)COP(=O)(O)OP(=O)(O)OP(=O)(O)O [OxATP, oxidized ATP]",effect on ATP-induced current,[6],no significant effect
same,effect on ATP-induced glutamate release,[2],did not significantly reduce
Nc1c(S(=O)(=O)O)cc(Nc2ccc(Nc3nc(Cl)nc(Nc4cccc(S(=O)(=O)O)c4)n3)c(S(=O)(=O)O)c2)c2c1C(=O)c1ccccc1C2=O [Reactive Blue 2],effect on ATP-induced glutamate release,[2],blocked the release
"2′,3′-O-(4-benzoylbenzoyl)-ATP [Bz-ATP]",increase in vertical sectional areas (cell swelling),"[7]; 100 μM agonist, 1 min",1.35±1.05%
same,glutamate release triggered by ATP agonists,[2],without effect
"CC(=O)OCOC(=O)CN(CC(=O)OCOC(C)=O)c1ccccc1OCCOc1ccccc1N(CC(=O)OCOC(C)=O)CC(=O)OCOC(C)=O [BAPTA/AM, 1,2-bis(2-aminophenoxy)ethane-N,N,N′,N′-tetraacetate (BAPTA)/AM]",ATP-induced increase in vertical sectional areas attenuated to,"[7]; ATP 100 μM, BAPTA/AM 20 μM preloaded",1.63±0.73%
same,effect on ATP-induced glutamate release,[2],attenuated the release
same,"effect on glutamate, aspartate, glutamine and taurine release evoked by ATP",[13],inhibited
"N#Cc1cc2c(cc1[N+](=O)[O-])=NC(=O)C(=O)N=2 [CNQX, 6-cyano-7-nitroquinoxaline-2,3-dione]",frequency and amplitude of PDSs compared with TTX alone,[4],significant decrease
C/C=C(/C)C(=O)O[C@H]1C(C)=C2[C@H]([C@@H]1OC(=O)CCCCCCC)[C@@](C)(OC(C)=O)C[C@H](OC(=O)CCC)[C@@]1(O)[C@H]2OC(=O)[C@@]1(C)O [thapsigargin],effect on glutamate release evoked by hypoosmotic challenge,[1]; [19],failed to affect
same,effect on ATP-induced glutamate release,[2],attenuated the release
CO/C1=C\C(C)=C\[C@@H](C)[C@@H](O)[C@@H](C)C/C(C)=C/C=C/[C@H](OC)[C@@H]([C@@H](C)[C@@H](O)[C@H](C)[C@@]2(O)C[C@@H](O)[C@H](C)[C@@H](C(C)C)O2)OC1=O [bafilomycin A1],frequency of inhibitory postsynaptic currents,[18],0.2 per sec
same,effect on glutamate release evoked by hypoosmotic challenge,[1],no effect
same,effect on ATP-induced glutamate release,[2],no effect
O=C1NC(=O)C(c2ccccc2)(c2ccccc2)N1 [phenyloin],ATP-evoked astrocytic Ca^2+ signaling (Ca^2+ waves) depressed by,[14]; [21],23.8%
same,4-AP-induced Ca^2+ signaling reduced by,[15]; [22],45.5%
"NC(CCCP(=O)(O)O)C(=O)O (stereo not shown) [APV, 2-amino-5-phosphonovalerate]",frequency and amplitude of PDSs compared with TTX alone,[4],highly significant reduction
